{"source": "patent US9095535B2", "about": "“GABA release-regulating agent in cerebellum” (KOREA INSTITUTE OF SCIENCE AND TECHNOLOGY, priority 2009, dated 2015)", "key": {"Best1 channel": {"biological_target": "T1, Best1 channel (Mus musculus, UniProt O88870)", "T1 construct": "mBest1 full-length fragment from pGEM-T easy plasmid (6.65 kb, Promega) was subcloned into pcDNA 3.1; expressed in transfected cells; host or cells: HEK293T (ATCC)", "T1 sequence (O88870 1-551 R255K)": "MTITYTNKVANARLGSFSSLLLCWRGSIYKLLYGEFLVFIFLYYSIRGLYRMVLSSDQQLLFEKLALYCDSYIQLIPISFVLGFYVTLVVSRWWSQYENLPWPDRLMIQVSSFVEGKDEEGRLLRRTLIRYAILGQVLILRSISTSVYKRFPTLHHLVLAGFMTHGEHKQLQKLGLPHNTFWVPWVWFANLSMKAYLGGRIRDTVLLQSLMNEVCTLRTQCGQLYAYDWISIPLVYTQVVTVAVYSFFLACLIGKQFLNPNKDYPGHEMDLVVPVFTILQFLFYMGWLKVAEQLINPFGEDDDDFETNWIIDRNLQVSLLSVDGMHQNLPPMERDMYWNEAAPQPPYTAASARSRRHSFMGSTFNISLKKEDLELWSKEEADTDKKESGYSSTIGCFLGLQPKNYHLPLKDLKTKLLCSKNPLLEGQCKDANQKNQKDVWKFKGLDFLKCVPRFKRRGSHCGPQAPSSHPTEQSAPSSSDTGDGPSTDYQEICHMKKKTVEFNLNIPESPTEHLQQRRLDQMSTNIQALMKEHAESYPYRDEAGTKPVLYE", "type": "cell-based", "settings": "NPPB and NFA at 100 μM; inward current in GABAc sensor cell", "source_text": "For Best1 channel to mediate release of GABA, it has to permeate GABA upon channel opening. To test for GABA permeability of Best1 channel, a two-cell sniffer patch technique was developed to directly measure GABA release via Best1 channel in sensor HEK293T cells that express GABAc, and via other channels that are expressed in source HEK293T cells (FIG. 1b).\npIRES-Best1-dsRED plasmid (obtained by cloning Best1 using pIRES-dsRED (Invitrogen)) and GABAc with GFP (obtained by cloning GABAc using pcDNA3.1 (Invitrogen)) were transfected into HEK 293T cells (ATCC) using Effectene transfection reagent (Qiagen). […]\nGABA release was induced by a break-though of membrane patch that goes into a whole-cell configuration in the source cell and such the released GABA was monitored and detected by a neighboring sensor cell. Full activation of GABA current was obtained by bath application of 100 μM GABA and the percentage of full activation was calculated (FIGS. 1c and 1d).\nPermeated GABA is detected in sensor as an inward current (bottom traces). […] The GABA permeability of said mutant was determined by using cells obtained by transfecting said mutant into HEK293t cell (ATCC). […] The GABA permeability of said AN01 was determined by using cells obtained by transfecting said mutant into HEK293t cell (ACTT)."}, "GABAc receptors": {"tested_on": "GABAc receptors", "assay": "Patch clamp of GABAc expressing HEK293 cells challenged with 100 μM GABA", "type": "cell-based", "settings": "100 μM GABA in absence or presence of 100 μM NFA and 100 μM NPPB", "description": "FIGS. 7a and 7b show the results when GABAc expressing HEK293 cells were patch clamped and challenged with 100 μM GABA in the absence and presence of 100 μM NFA and 100 μM NPPB; and\nIn FIGS. 7a and 7b, GABAc expressing HEK293 cells were patch clamped and challenged with 100 μM GABA in the absence or presence of 100 μM NFA and 100 μM NPPB."}, "cerebellar granule cells": {"tested_on": "cerebellar granule cells", "assay": "Whole-cell patch clamp of tonic GABA current in cerebellar granule cells", "type": "cell-based, mouse", "description": "Brain slices were prepared as described in Rossi et al., 2003. For slice recording, either approximately P28 days old or more than 8 weeks old mice were used. Animals were deeply anesthetized with halothane. After decapitation, the brain was quickly excised from the skull and submerged in ice-cold cutting solution (in mM): 250 Sucrose, 26 NaHCO3, 10 D(+)-Glucose, 4 MgCl2, 3 myo-inositol, 2.5 KCl, 2 Sodium pyruvate, 1.25 NaH2PO4, 0.5 Ascorbic acid 0.1 CaCl2, 1 Kynurenic acid, pH 7.4. All solutions were gas-treated with 95% O2-5% CO2. After trimming both sides of vermis, several parasagittal slices with […] thicknesses containing cerebellar lobes were cut using a microtome (Leica VT 1000) and transferred to extracellular ACSF solution (in mM); 126 NaCl, 24 NaHCO3, 1 NaH2PO4, 2.5 KCl, 2.5 CaCl2, 2 MgCl2, 10 D(+)-Glucose, pH 7.4. Slices were incubated for one hour at least at room temperature.\nFor recording, slices were transferred to an electrophysiological recording chamber (RC-26G, Warner Instruments) which is continuously superfused with ASCF (artificial cerebrospinal fluid, sigma) solution (flow rate; 2 ml/min) and controlled by flower controller (Synaptosoft) and a vacuum pump (Charles Austen, model Capex 8C). Slice chamber was mounted on the stage of an upright microscope (Olympus, Japan) and viewed with an ×60 water immersion objective with differential interference contrast and infrared optics. Cellular morphologies were visually identified by Imaging Workbench 6.0 (INDEC Systems, Inc), camera controller (Hamamatsu, C4742-95), and light microscope controller (Olympus, TH4-200). Fluorescence images were viewed with mercury lamp (Olympus, U-RFL-T). Whole cell voltage-clamp recording was made from granular cell somata or Bergmann glial cells mostly located in 2-5 cerebellar lobules\nPipette resistance for granule cells was typically 10-12 MΩ and pipette was filled with an internal solution containing (in mM) 135 CsCl, 4 NaCl, 0.5 CaCl2, 10 HEPES, 5 EGTA, 2 Mg-ATP, 0.5 Na2-GTP, 10 QX-314, pH adjusted to 7.2 with CsOH (278-285 mOsmol) was used (Rossi, et al., 2003).\nB6 wildtype, GFAP-GFP and hGFAP-CreERT2 trangenic mice (SPF room, Center for Neural Science, KIST, Seoul, Korea) were anaesthetized by intraperitoneal injection of 2% avertin (20 μl/g, sigma) and placed in a stereotaxic frame (David Kopf instrument). pSicoR-b1shRNA-mCherry or scrambled virus (Macrogen) was stereo-injected into cerebellar cortex at a rate of 0.2 μl/min (total 2 μl) using syringe pump (Harvard apparatus) and 25 μl syringe (Hamilton company). The coordination of injection site was 1.7 mm from the lambda and the depth was 1.5-1.7 mm from the skull.\nThe glia-specific CreERT activation was initiated by intraperitoneal injection of tamoxifen for 5 days prior to lentivirus injection (FIG. 4a,b). […] Tamoxifen or sunflower oil were injected intraperitoncally once a day for 5 days before lentivirus injection."}, "GABAA receptor": {"tested_on": "GABAA receptor", "assay": "GABA-induced whole cell current in cerebellar granule cells", "type": "cell-based", "settings": "NPPB application 2 and 5 min; wild B6 mouse granule cells", "description": "For puffing experiment, glass electrode (5-6 MΩ) filled with […] was positioned near to the patched granular cell and puffed briefly for 500 ms by Picospritzer III (Parker instrumentation) connected with MiniDigi (Molecular Device).\nThe magnitudes of GABA induced current with the NPPB application (2 and 5 min) are also shown."}, "hBest1": {"biological_target": "T2, hBest1 (Homo sapiens, UniProt O76090)", "T2 sequence (O76090 1-585)": "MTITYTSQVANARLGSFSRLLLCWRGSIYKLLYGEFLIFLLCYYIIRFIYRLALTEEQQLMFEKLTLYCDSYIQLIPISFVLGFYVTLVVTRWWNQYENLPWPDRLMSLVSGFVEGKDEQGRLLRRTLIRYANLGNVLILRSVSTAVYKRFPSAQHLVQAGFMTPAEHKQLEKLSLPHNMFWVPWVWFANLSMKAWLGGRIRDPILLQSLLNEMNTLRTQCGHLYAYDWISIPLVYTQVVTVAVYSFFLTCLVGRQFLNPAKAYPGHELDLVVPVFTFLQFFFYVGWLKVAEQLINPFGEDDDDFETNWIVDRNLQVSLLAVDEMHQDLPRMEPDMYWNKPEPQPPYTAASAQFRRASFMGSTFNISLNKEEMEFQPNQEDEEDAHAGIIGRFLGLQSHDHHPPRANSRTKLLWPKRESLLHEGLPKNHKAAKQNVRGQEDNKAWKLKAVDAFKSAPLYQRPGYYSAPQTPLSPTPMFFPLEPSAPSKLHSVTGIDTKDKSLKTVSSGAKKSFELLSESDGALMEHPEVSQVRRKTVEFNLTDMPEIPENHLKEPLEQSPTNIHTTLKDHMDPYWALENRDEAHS", "settings": "cited from earlier work"}}, "data": [{"compound": "O=C(O)c1cc([N+](=O)[O-])ccc1NCCCc1ccccc1", "note": "[NPPB, 5-nitro-2(3-phenylpropylamino)-benzoic acid]", "values": [{"measurement": "GABA release via Best1", "setting": "Best1 channel", "value": "completely abolished"}, {"measurement": "GABA response of GABAc expressing HEK293 cells", "setting": "GABAc receptors", "value": "do not have significant impact"}, {"measurement": "NPPB sensitive and Best1-mediated tonic GABA release as share of total GABAzine-sensitive current", "setting": "cerebellar granule cells", "value": "about 70%"}, {"measurement": "Tonic GABA current", "setting": "cerebellar granule cells; bath application of 50 μM NPPB, 8 wks B6 mice", "value": "reduced"}, {"measurement": "NPPB-sensitive component of tonic GABA current", "setting": "cerebellar granule cells; naive mice, 50 μM NPPB", "value": "18.95±2.47", "unit": "pA"}, {"measurement": "GABA-induced whole cell current", "setting": "GABAA receptor", "value": "did not have any effect"}, {"measurement": "block of hBest1 Cl− channel", "setting": "hBest1", "value": "readily blocked"}]}]}
